Laboratory results published in the Kinase Knowledgebase extract (Sharma et al. 2016).

These compounds were tested against EGFR (human) (UniProt P00533). Details: mcf-7.
Chain of EGFR (human) (P00533 whole entry, looked up): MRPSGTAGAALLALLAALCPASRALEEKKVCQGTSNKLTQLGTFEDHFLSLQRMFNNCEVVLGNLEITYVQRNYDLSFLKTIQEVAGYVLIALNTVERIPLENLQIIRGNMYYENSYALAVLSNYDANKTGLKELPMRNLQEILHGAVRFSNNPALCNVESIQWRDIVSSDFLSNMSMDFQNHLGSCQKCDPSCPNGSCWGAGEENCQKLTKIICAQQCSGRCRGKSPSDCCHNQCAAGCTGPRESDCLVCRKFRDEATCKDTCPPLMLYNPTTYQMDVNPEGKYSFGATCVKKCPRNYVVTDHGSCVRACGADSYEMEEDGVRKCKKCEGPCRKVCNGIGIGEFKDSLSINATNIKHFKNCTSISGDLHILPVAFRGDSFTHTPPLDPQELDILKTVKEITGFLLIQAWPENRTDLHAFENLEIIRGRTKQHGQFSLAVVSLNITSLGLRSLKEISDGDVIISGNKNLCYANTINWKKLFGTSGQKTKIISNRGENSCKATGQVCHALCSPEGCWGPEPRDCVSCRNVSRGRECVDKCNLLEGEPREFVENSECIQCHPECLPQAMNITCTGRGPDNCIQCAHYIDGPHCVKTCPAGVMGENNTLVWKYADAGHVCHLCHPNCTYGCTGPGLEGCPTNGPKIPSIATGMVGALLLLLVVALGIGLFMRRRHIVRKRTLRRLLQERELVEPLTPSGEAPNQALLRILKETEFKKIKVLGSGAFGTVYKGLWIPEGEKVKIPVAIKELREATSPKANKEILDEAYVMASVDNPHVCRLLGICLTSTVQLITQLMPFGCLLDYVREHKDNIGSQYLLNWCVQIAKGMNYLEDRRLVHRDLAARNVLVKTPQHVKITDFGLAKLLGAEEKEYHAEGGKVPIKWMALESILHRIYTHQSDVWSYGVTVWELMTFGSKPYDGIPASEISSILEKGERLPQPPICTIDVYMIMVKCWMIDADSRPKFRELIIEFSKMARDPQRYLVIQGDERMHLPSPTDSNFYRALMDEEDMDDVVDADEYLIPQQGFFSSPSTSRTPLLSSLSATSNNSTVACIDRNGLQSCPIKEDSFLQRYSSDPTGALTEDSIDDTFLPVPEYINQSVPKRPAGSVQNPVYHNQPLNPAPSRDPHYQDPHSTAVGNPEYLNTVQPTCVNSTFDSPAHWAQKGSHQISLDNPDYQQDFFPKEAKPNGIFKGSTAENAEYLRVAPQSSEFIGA

Row | SMILES | IC50 [nM]
1 | COc1cc2nc(Cl)nc(Nc3ccc(S(=O)(=O)Nc4nccs4)cc3)c2cc1OC | 0.13
2 | CCOc1ccc2nc(C)cc(Nc3ccc(S(=O)(=O)Nc4cc(C)on4)cc3)c2c1 | 13.8
3 | COc1cc2nc(Cl)nc(N3CCN(S(=O)(=O)c4ccc(C)cc4)CC3)c2cc1OC | 1.08
4 | CCOc1ccc2nc(C)cc(Nc3ccc(Cl)cc3Cl)c2c1 | 4.38
5 | COc1cc2nc(Cl)nc(Nc3ccc(S(=O)(=O)Nc4cc(C)on4)cc3)c2cc1OC | 1.98
6 | CCOc1ccc2nc(C)cc(N3CCN(C(=O)c4ccco4)CC3)c2c1 | 4.31
7 | CCOc1ccc2nc(C)cc(Nc3ccc(S(=O)(=O)NC(=N)N)cc3)c2c1 | 19.2
8 | CCOc1ccc2nc(C)cc(Nc3cccc(O)c3)c2c1 | 2.84
9 | CCOc1ccc2nc(C)cc(Nc3ccc(S(=O)(=O)Nc4ncccn4)cc3)c2c1 | 3.96
10 | CCOc1ccc2nc(C)cc(Nc3cc(OC)c(OC)cc3C(=O)OC)c2c1 | 1.67
